# In US9908890B2, “Selective inhibitors of constitutive androstane receptor” (ST. JUDE CHILDREN'S RESEARCH HOSPITAL, priority 2014, dated 2018):
# Legend:
# hCAR1 = target: T1, hCAR1 (Homo sapiens, UniProt Q14994); assay: CAR-mediated CYP3A4-luciferase assay (HepG2 cells transfected with hCAR1); format: cell-based; details: 1 μM or 5 μM CINPA1, 24 h
# T1 construct: expressed in transfected cells; host or cells: HepG2 (transient transfection)
# T1 sequence (Q14994 1-348 isoform Q14994-2): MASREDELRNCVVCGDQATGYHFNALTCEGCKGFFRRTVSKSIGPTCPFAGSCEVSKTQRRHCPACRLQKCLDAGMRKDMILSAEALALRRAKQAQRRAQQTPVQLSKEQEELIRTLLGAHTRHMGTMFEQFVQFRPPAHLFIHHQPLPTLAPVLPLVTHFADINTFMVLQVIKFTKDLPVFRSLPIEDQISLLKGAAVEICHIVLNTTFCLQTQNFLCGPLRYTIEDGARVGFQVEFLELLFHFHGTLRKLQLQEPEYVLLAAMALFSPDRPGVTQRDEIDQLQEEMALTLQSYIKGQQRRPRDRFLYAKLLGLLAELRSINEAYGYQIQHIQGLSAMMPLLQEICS
# Method: Briefly, HepG2 cells were transiently transfected with plasmids expressing hCAR1, CYP3A4-luc reporter and control plasmid pTK-RL. […] Dual luciferase activity was measured 24 h after treatment using Dual-Glo® luciferase reagent. Renilla luciferase was used to normalize firefly luciferase values and % Luciferase activity was calculated by setting DMSO to 100%. p<0.001, when comparing DMSO to all treatments except 5 μM rifampicin. […] Briefly, HepG2-PXR Clone 1 cells were treated with CINPA1 in a dose-responsive format (40 μM to 2 nM, 1-to-2 dilutions for 10 concentrations) in the presence or absence of 5 μM rifampicin (Rif) for 24 h before luciferase assay using SteadyLite™. % PXR activity was calculated by setting DMSO (negative. control) treated cells to 0% and 5 μM rifampicin (positive. control) treated cells to 100%. GraphPad Prism was used to fit the data into a dose-response stimulation equation to derive IC50 values. […] Briefly, U2OS cells were transiently transfected with plasmids expressing hCAR1, CYP2B6-luc reporter and control plasmid pTK-RL. […] Dual luciferase activity was measured 24 h after treatment. Renilla luciferase was used to normalize firefly luciferase values and % Luciferase activity was calculated by setting DMSO to 100%. *, p<0.0001 comparing CITCO+CINPA1 to CITCO treated cells.
# [1] = system: CAR-regulated genes in HepG2-hCAR1 cells; assay: Quantitative real-time PCR in HepG2-hCAR1 cells; format: cell-based, human
# From the text: RNA was extracted, cDNA synthesized, and gene expression analyzed by performing real-time PCR using Taqman probes for each gene. […] LS174T cells were maintained in 10% charcoal-dextran-treated, FBS media for 4 days before the experiment. […] Briefly, human primary hepatocytes (HPH) were maintained in William's E media with supplements for 4 days before treatment. […] RNA extracted was used for cDNA synthesis and measured by performing quantitative real-time PCR assays with Taqman probes.
# Briefly, LS174T were maintained in 10% charcoal-dextran treated-FBS media for 4 days prior to the experiment. […] For the data shown in both FIG. 12A and FIG. 12B, RNA extracted was used for cDNA synthesis and measured by quantitative real-time PCR with Taqman probes. MDR1 mRNA was normalized to the internal control 18S and DMSO treated samples were set to 1. *, p<0.05 when compared to DMSO samples.
# Cell lines or human hepatocytes were treated with chemicals for 24-48 hours before RNA was extracted and purified by using the Maxwell 16LEV simplyRNA tissue kit (Promega). Then, cDNA was prepared from 2 μg of RNA, and diluted cDNA was used to perform quantitative RT-PCR assays by using TaqMan probes (ABI; 7500 Thermocycler) with 18S as the internal standard.
compound,measurement,setting,value
CCOC(=O)Nc1ccc2c(c1)N(C(=O)CN(CC)CC)c1ccccc1CC2 [CINPA1],CAR-mediated CYP3A4-luciferase activity,hCAR1,also seen in CAR-mediated CYP3A4-luciferase activity
same,MDR1 mRNA level,"[1]; HepG2-hCAR1, 0.1 μM CINPA1 or 1 μM PK11195, 24 h",reduced MDR1 levels
same,CYP2B6 mRNA level,"[1]; HepG2-hCAR1, 1 μM, 24 h",substantially and significantly attenuated
same,CYP3A4 mRNA level,"[1]; HepG2-hCAR1, 1 μM, 24 h",substantially and significantly attenuated
